One data set has as its system anaesthetised rats. The data set is described as follows: intravenous toxicity in anaesthetised rats. It is filed as in vivo. Particulars: two anaesthetised rats, ten times the dose giving approximate 50% inhibition of gastric secretion in the anaesthetised rat. The protocol: (§1) No overt toxicity or side effects were noted during the rat or dog tests. The compound 1-[3-(4-[2-(2,2,2-trifluoroethyl)guanidino]pyrimid-2-yloxy)propyl]imidazole was administered intravenously to groups of two anaesthetised rats and four conscious mice at doses which were respectively ten times and one hundred times the dose, in mg./kg., which produced an approximate 50% inhibition of gastric secretion in the anaesthetised rat.

The test system of another data set is conscious mice. The experiment in a line: intravenous toxicity in conscious mice. Particulars: four conscious mice, one hundred times the dose giving approximate 50% inhibition of gastric secretion in the anaesthetised rat. Format: in vivo. The method, then: as §1

In the case of `NC(=NCC(F)(F)F)Nc1ccnc(OCCCn2ccnc2)n1` [Example 6, 1-[3-(4-[2-(2,2,2-trifluoroethyl)guanidino]pyrimid-2-yloxy)propyl]imidazole], the toxic symptoms result in the data set on anaesthetised rats and with conscious mice was “No toxic symptoms” each time.

The values are drawn from US4570000A, “Nitrogen heterocycles” (Imperial Chemical Industries, PLC, priority 1981, dated 1986).
